Measured values taken from the NIST ThermoML archive (doi:10.1021/je300143a).
Numbers after ± are expanded uncertainties.

Assays:
[1] = Crystal; DTA
[2] = Molar enthalpy of transition or fusion; details: Crystal; DSC

| SMILES | Normal melting temperature [1] [°C] | Molar enthalpy of transition or fusion [2] [kcal/mol] |
| --- | --- | --- |
| CC(C)c1ccc(NC2=NCCC3(CCCCC3)S2)cc1 | 139.6 ± 0.5 | 6.98 ± 0.287 |
| Cc1ccc(NC2=NCCC3(CCCCC3)S2)cc1Cl | 149.2 ± 0.5 | 7.93 ± 0.287 |
| FC(F)(F)c1ccc(NC2=NCCC3(CCCCC3)S2)cc1 | 149.7 ± 0.5 | 7.86 ± 0.287 |
| Brc1ccc(NC2=NCCC3(CCCCC3)S2)cc1 [N-(4-bromophenyl)-1-thia-3-azaspiro[5.5]undec-2-en-2-amine] | 175.2 ± 0.5 | 10.6 ± 0.311 |
| CCc1ccc(NC2=NCCC3(CCCCC3)S2)cc1 [N-(4-ethylphenyl)-1-thia-3-azaspiro[5.5]undec-2-en-2-amine] | 139.4 ± 0.5 | 10.2 ± 0.311 |
| COc1ccc(NC2=NCCC3(CCCCC3)S2)cc1 [N-(4-methoxyphenyl)-1-thia-3-azaspiro[5.5]undec-2-en-2-amine] | 115.4 ± 0.5 | 7 ± 0.287 |

More lines, now with the values ahead:

| Normal melting temperature [1] [°C] | Molar enthalpy of transition or fusion [2] [kcal/mol] | SMILES |
| --- | --- | --- |
| 163.5 ± 0.5 | 7.77 ± 0.287 | CC(=O)c1ccc(NC2=NCCC3(CCCCC3)S2)cc1 |
| 130.2 ± 0.5 | 6.67 ± 0.287 | O=C(NC1=NCCC2(CCCCC2)S1)c1ccccc1 [N-(1-thia-3-azaspiro[5.5]undec-2-en-2-yl)benzamide] |
| 162.6 ± 0.5 | 6.67 ± 0.287 | Clc1ccc(NC2=NCCC3(CCCCC3)S2)cc1 [N-(4-chlorophenyl)-1-thia-3-azaspiro[5.5]undec-2-en-2-amine] |
| 108.2 ± 0.5 | 10 ± 0.311 | Cc1ccc(NC2=NCCC3(CCCCC3)S2)cc1 [N-(4-methylphenyl)-1-thia-3-azaspiro[5.5]undec-2-en-2-amine] |
| 113.4 ± 0.5 | 5.16 ± 0.263 | c1ccc(NC2=NCCC3(CCCCC3)S2)cc1 [N-phenyl-1-thia-3-azaspiro[5.5]undec-2-en-2-amine] |
